Assay results taken from patent US12472230B2, “Peptides and methods of use thereof in treating uveitis” (Park Strategic Ventures LLC, priority 2019, dated 2025).
In brackets after ≈: the same amount, converted by molar mass. Residues, ends and D or L forms follow the SMILES beside them. No end group written: not given here. *: point of attachment. Myristoyl = CCCCCCCCCCCCCC(=O)*

What was measured:
[1] = T/2 in human plasma; type: in vitro ADME
[2] = Solubility in HNS; type: physicochemical
[3] = test system: release of inflammatory mediators from leukocyte cell types; test: Release of inflammatory mediators from leukocyte cell types, MANS versus RNS; type: cell-based, human; conditions: each of the cell types examined; time course of 0.5-3.0 hrs
Protocol: In an in vitro method to inhibit or attenuate the release of a mediator of inflammation such as those described herein, each of the cell types is preincubated with a peptide compound or peptide composition of this disclosure over a range of concentrations followed by incubation of these cells by a stimulator of release of inflammatory mediators, such as phorbol ester. The percent of inhibition of release of a mediator of inflammation is determined as compared to the release of the mediator in the absence of the peptide compound or peptide composition, such as in a specrophotometric readout of a concentration of the mediator released.

Row | Compound | half-life [1] [min] | solubility [2] [mg/mL] | further results
1 | CCCCCCCCCCCCCC(=O)NCC(=O)N[C@@H](C)C(=O)N[C@@H](CCC(N)=O)C(=O)N[C@@H](Cc1ccccc1)C(=O)N[C@@H](CO)C(=O)N[C@@H](CCCCN)C(=O)N[C@H](C(=O)N[C@@H](C)C(=O)N[C@@H](C)C(=O)N[C@@H](CCCCN)C(=O)O)[C@@H](C)O [BIO-11000] (Myristoyl-GAQFSKTAAK-OH) | 72 | 15 (≈ 12.3 mM) | –
2 | CCCCCCCCCCCCCC(=O)NCC(=O)N[C@@H](C)C(=O)N[C@@H](CCC(N)=O)C(=O)N[C@@H](Cc1ccccc1)C(=O)N[C@@H](CO)C(=O)N[C@@H](CCCCN)C(=O)N[C@H](C(=O)N[C@@H](C)C(=O)N[C@@H](C)C(=O)N[C@@H](CCCCN)C(N)=O)[C@@H](C)O [BIO-11002] (Myristoyl-GAQFSKTAAK-NH2) | – | < 10 | T/2 (human plasma), in words [1]: stable
3 | C[C@@H]1NC(=O)CNC(=O)[C@H](CCCCN)NC(=O)[C@H](C)NC(=O)[C@H](C)NC(=O)[C@H]([C@@H](C)O)NC(=O)[C@H](CCCCN)NC(=O)[C@H](CO)NC(=O)[C@H](Cc2ccccc2)NC(=O)[C@H](CCC(N)=O)NC1=O [BIO-11007] (cyclo(GAQFSKTAAK); ring closure inferred) | – | 150 (≈ 151 mM) | –
4 | CCCCCCCCCCCCCC(=O)N[C@@H](C)C(=O)N[C@@H](CCCCN)C(=O)NCC(=O)N[C@@H](CCC(=O)O)C(=O)O [BIO-91200, Ma-AKGE-OH] (Myristoyl-AKGE-OH) | – | ~1 (≈ 1.63 mM) | –
5 | CC(=O)N[C@@H](C)C(=O)N[C@@H](CCCCN)C(=O)NCC(=O)N[C@@H](CCC(=O)O)C(=O)O [BIO-91201, Ac-AKGE-OH] (Ac-AKGE-OH) | – | 200 (≈ 449 mM) | –
6 | CC(=O)N[C@@H](C)C(=O)N[C@@H](CCCCN)C(=O)NCC(=O)N[C@@H](CCC(=O)O)C(N)=O [BIO-91202, Ac-AKGE-NH2] (Ac-AKGE-NH2) | – | 200 (≈ 450 mM) | –
7 | CCCCCCCCCCCCCC(=O)NCC(=O)N[C@@H](C)C(=O)N[C@@H](CCC(N)=O)C(=O)N[C@@H](Cc1ccccc1)C(=O)N[C@@H](CO)C(=O)N[C@@H](CCCCN)C(=O)N[C@H](C(=O)N[C@@H](C)C(=O)N[C@@H](C)C(=O)N[C@@H](CCCCN)C(=O)NCC(=O)N[C@@H](CCC(=O)O)C(=O)N[C@@H](C)C(=O)N[C@@H](C)C(=O)N[C@@H](C)C(=O)N[C@@H](CCC(=O)O)C(=O)N[C@@H](CCCNC(=N)N)C(=O)N1CCC[C@H]1C(=O)NCC(=O)N[C@@H](CCC(=O)O)C(=O)N[C@@H](C)C(=O)N[C@@H](C)C(=O)N[C@H](C(=O)N[C@@H](C)C(=O)O)C(C)C)[C@@H](C)O [MANS] (Myristoyl-GAQFSKTAAKGEAAAERPGEAAVA-OH; C-terminus assumed) | 12 | < 5 | –
8 | Ac-GAQFSKTA-OH [BIO-10803] | – | 200 | –
9 | Ac-GAQFSKTAA-OH [BIO-10901] | 5 | > 60 | –
10 | Ac-GAQFSKTAAKGE-NH2 [BIO-11211] | > 156 | 60 | –
11 | Ac-GAQFSKTAAKGEAAAERPGEAAVA-OH [Ac-MANS] | – | 125 | –
12 | BIO-11018: SEQ ID NO 106 pegylated (GAQFSKTAAK; also: PEGylated, site not given here) | – | – | Solubility in HNS [2]: >100 mg/mL
13 | GTAPAAEGAGAEVKRASAEAKQAF [RNS] | – | – | release of inflammatory mediators [3]: not
14 | H-GAQFSKTAAK-NH2 [BIO-11005] | 20 | 100 | –
